Test [1] deals with T1, bacterial (E.coli) tRNA guanine transglycosylase (TGT) (Escherichia coli, UniProt P0A847).
T1 construct: His6 (C); made in house; host or cells: E. coli BL21
The test is described as follows: Fluorescence emission spectra of PreQ1-TO probe turn-on with mCherry-TAG RNA. The format is biochemical. The method, then:
Fluorescence emission spectra of PreQ1-TO probe turn-on with mCherry-TAG RNA. Fluorescence emission spectra were collected in a similar fashion to that described previously for the short RNA hairpins. 25 μL reactions were setup with 10 μM TGT enzyme, 20 μM PreQ1-TO, and 100 nM transcript RNA and incubated at 37° C. for 2 hours. Samples were then diluted 30-fold and measured under the same conditions and parameters as that of the short hairpins.

The target of test [2] is T1, bacterial (E.coli) tRNA guanine transglycosylase (TGT). The test is described as follows: TGT-catalyzed incorporation of PreQ1 analogs into RNA oligonucleotide hairpins (LC / HRMS). The format is biochemical. The method, then:
General TGT reaction with RNA oligonucleotide hairpins TGT reaction conditions were adapted from a previously reported literature procedure.^1 An eppendorf tube containing 10 μM RNA oligonucleotide, 100 μM PreQ1 analog, and 10 μM TGT enzyme were prepared in a final volume of 50 μL of TGT reaction buffer. The reactions were incubated at 37° C. for a minimum of 2 hours. The reactions were halted by chilling samples to 4° C. or freezing at −80° C. until purified or analyzed.
Liquid chromatography and mass spectroscopy analysis of preQ1 modified RNA hairpins. Samples were first prepared according to the general procedure. Samples were allowed to react for 6 hours and frozen at −80° C. until analyzed (PreQ1-Biotin required 24 hours for completion). Samples were diluted 1:2 with milli-Q water and injected onto a clarity Oligo-MS column (Phenomenex, Torrance, Calif.) and analyzed by HPLC according to the following gradient: (A=Milli-Q water containing 20% hexafluoroisopropanol (HFIP) and 0.1% TEA, B=methanol), Initial conditions 95% A, 5% B, hold 2 min then a linear gradient starting at 2 min and ending at 10 min with 45% A, 55% B. Samples were monitored at 260 nm as well as either 505 nm or 700 nm as appropriate when fluorophore PreQ1 analogs were employed. HRMS samples were collected in negative ion mode and analyzed in a similar manner by combining the mass spectrum traces across the peak of interest. Raw mass spectrum were deconvoluted using MagTran software package v.

Test [3] has the same target. Put plainly: Fluorescence emission spectra of PreQ1-TO probe turn-on with ECY-A1 hairpin. The format is biochemical. The following applies: RNA hairpin ECY-A1; normalized to PreQ1-TO in the absence of RNA and TGT (FIG. 2B). The method, then: Fluorescence emission spectra of PreQ1-TO probe turn-on with ECY-A1 hairpin. Samples of ECY-A1, ECY-A1ΔC, and ECY-X1 were first prepared in a similar fashion to the general protocol except only 20 μM PreQ1-TO was employed to avoid non-specific binding to the hairpins. Samples were allowed to react for 2 hours, verified to be at completion by HPLC, and diluted 30-fold into TGT reaction buffer. Spectra were then collected on a Fluoromax-P spectrophotometer by excitation at 501 nm and scanning emission from 510 to 600 nm with excitation and emission slit width at 5 nm and an integration time of 1 s. All spectra were background subtracted from TGT reaction buffer and Normalized against the fluorescence intensity values of a sample containing an analogous concentration of PreQ1-TO (0.667 μM) in TGT reaction buffer.

Test [4] addresses T2, streptavidin M-280 DYNABEADS (Streptomyces avidinii, UniProt P22629).
T2 construct: purchased Life Technologies M280
Put plainly: DYNABEADS streptavidin pull-down of PreQ1-Biotin modified transcripts. The test is classed as binding. As to conditions: mCherry-TAG vs mCherry-TAGΔC after TGT labeling (FIGS. 3C and 10). The method, then:
DYNABEADS® Streptavidin pull-down of PreQ1-Biotin modified transcripts. mCherry-TAG and mCherry-TAGΔC transcripts was incubated in a mixture of 1 μM RNA, 100 μM preQ1-Biotin, and 1 μM TGT (omitted in control samples) in TGT reaction buffer at 37° C. for 4 hours. 1 unit of RNAseIn (Promega, Madison, Wis.) was added to the reaction to prevent transcript degradation. Samples were drop dialyzed through 0.02 μm MF-Millipore membrane filter (Millipore, Billerica, Mass.) using 25 mL Milli-Q water and subsequently ethanol precipitated by addition of 10% volume of 3M sodium acetate and 2.5 volumes 95% ethanol and incubation at […] overnight. After centrifugation at 4° C. (16,100 g, 30 min), the resulting RNA pellet was resuspended in water, and the concentration of RNA was quantified.
Streptavidin M280 DYNABEADS® (Life Technologies, Carlsbad, Calif.) were washed according to manufacturer's instructions for RNA applications using binding and washing (B&W) buffer. Beads were blocked in B&W buffer with yeast tRNA (0.1 mg/100 uL of beads). Following the blocking step, beads were washed twice with B&W buffer. Pull down was then performed by incubation of 1 μg of prepared RNA with 10 uL of washed beads in B&W buffer at room temperature for 30 minutes with constant rotation. The beads were then washed three times with B&W buffer. […] Samples were then analyzed by 4% denaturing PAGE.

The target of a further test is T3, streptavidin (Streptomyces avidinii, UniProt P22629).
T3 construct: purchased Life Technologies
Put plainly: Streptavidin gel shift of RNA hairpins modified with PreQ1-Biotin. The test is classed as binding. As to conditions: ECY-A1 vs ECY-A1ΔC, with and without TGT; 15% denaturing PAGE (FIG. 2C). The method, then:
Streptavidin gel shift of RNA hairpins. ECY-A1 RNA and ECY-A1ΔC was incubated in a mixture of 10 μM RNA, 100 μM preQ1-Biotin, and 1 μM TGT (omitted in control samples) in TGT reaction buffer at 37° C. for 24 hours. After the reactions were complete, the RNA was precipitated by addition of 10% volume of 3M sodium acetate and 2.5 volumes 95% ethanol and incubation at −20° C. overnight. After centrifugation at 4° C. (16,100 g, 30 min), the resulting RNA pellet was resuspended in water, and the concentration of RNA was quantified. The prepared RNA was then incubated in the presence of streptavidin (Life Technologies, Carlsbad, Calif.) at 37° C. for 1 hour in a mixture containing the following: 10 mM Tris (pH 8.1), 2.5 μM RNA, and 50 μM streptavidin. 1X RNA loading dye (NEB, Ipswitch, Mass.) was added to the sample (without heat denaturation) and samples were analyzed by 15% denaturing PAGE.
(Mobility shift assays separate free from complexed probe on a gel.)

Test [5] addresses T1, bacterial (E.coli) tRNA guanine transglycosylase (TGT). The format is biochemical. As to conditions: TGT present; 4% denaturing PAGE (FIG. 3A, FIG. 7).
Procedure: General labeling reaction procedure for fluorescence spectra and gel analysis. A 25 μL reaction was setup in a small eppendorf tube containing 100 nM RNA transcript, 50 μM PreQ1 analog, and 1μM TGT in TGT reaction buffer. 1 unit of RNaseln (Promega, Madison, Wis.) was added to each reaction to prevent degradation of the transcript. The reaction was allowed to proceed for 4 hours, after which the sample was cooled to 4° C. and either used directly or stored at −80° C. until further analyzed.
Gel Analysis of TGT reactions with PreQ1 analogs. […] After the reactions were complete, the RNA was precipitated by addition of 10% volume of 3M sodium acetate and 2.5 volumes 95% ethanol. The samples were then precipitated at −80° C. for 2 hours after which they were centrifuged at 16,100 g for 30 minutes at 4° C. The ethanol was carefully pipetted away and the RNA pellet was allowed to air dry for 10 minutes on the bench. The pellet was resuspended in 10 μL of 1X RNA loading dye (NEB, Ipswitch, Mass.), heated to 95° C. for 2 minutes, placed on ice for 20 minutes, and subsequently loaded into a freshly poured denaturing 4% polyacrylamide gel (4% polyacrylamide in 1X TBE buffer with 8% urea) and run at 120 V for approximately 2 hours until the xylene cyanol blue dye had reached the bottom of the gel. […]
Test [6] relates to mCherry-TAG RNA endogenously expressed in CHO cells. Put plainly: Fixed cell labeling of endogenously expressed mCherry-TAG transcript. The test is classed as cell-based, Chinese hamster. The following applies: 50 μM PreQ1-Cy7, with TGT and mCherry-TAG plasmid vs controls without (FIG. 4). The method, then:
Fixed Cell Labeling of Endogenously Expressed mCherry-ECY-A1 Transcript. Chinese Hamster Ovary (CHO) cells (CRL-9606, ATCC, Manassas, Va.) were cultured in Ham's F-12K media (Life Technologies, Carlsbad, Calif.) and kept under 20 passages from the ATCC standard line. CHO cells were plated at an initial density of 10,000 cells per well in a Nunc Lab-Tek 8 well chamber slide (Thermo Scientific, Waltham, Mass.). Cells were allowed to adhere overnight and washed with Opti-MEM media (Life Technologies, Carlsbad, Calif.) and subsequently transfected with […] of mCherry-TAG plasmid per well with 1.5 μL of Lipofectamine® 2000 (Life Technologies, Carlsbad, Calif.) in Opti-MEM as per manufacture's protocol. Control wells lacking transfection were treated and washed with Opti-MEM in the absence of DNA and lipofectamine®. After overnight transfection, the cells were washed twice with PBS (200 μL each) and fixed with 100 μL of a 3.7% paraformaldehyde in PBS solution for 10 minutes at room temperature. Cells were then permeabilized by treatment with 100 μL of 0.1% Triton X-100 in PBS for 20 minutes at room temperature and washed 2×200 μL with fresh PBS. Cells were then treated for four hours at 37° C. with 100 μL of TGT reaction buffer containing 50 μM PreQ1-Cy7 either with or without 10 μM TGT enzyme added. […] Images were subsequently analyzed and processed using ImageJ (NIH, rsbweb.nih.gov).

T1 sequence (P0A847 whole entry, added parts left off): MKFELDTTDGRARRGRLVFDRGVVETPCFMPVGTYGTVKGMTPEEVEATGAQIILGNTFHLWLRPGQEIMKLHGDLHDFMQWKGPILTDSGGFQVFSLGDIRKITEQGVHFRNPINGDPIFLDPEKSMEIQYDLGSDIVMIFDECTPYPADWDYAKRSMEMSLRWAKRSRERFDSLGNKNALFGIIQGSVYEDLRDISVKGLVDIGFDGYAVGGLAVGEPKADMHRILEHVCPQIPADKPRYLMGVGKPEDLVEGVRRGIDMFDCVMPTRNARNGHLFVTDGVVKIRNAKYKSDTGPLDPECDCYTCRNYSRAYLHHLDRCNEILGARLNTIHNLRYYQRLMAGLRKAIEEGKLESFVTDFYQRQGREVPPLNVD
T2 sequence (P22629 25-183): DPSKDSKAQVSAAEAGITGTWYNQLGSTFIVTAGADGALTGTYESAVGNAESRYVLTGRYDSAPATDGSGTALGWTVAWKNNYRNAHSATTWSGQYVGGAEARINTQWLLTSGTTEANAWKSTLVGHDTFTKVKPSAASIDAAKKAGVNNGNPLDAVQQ
T3 sequence (P22629 25-183): as above

For `CN1/C(=C/c2cc[n+](CCCCCC(=O)NCCOCCOCCOCCNCc3c[nH]c4nc(N)[nH]c(=O)c34)c3ccccc23)Sc2ccccc21.O=C[O-]` [PreQ1-TO], in test [1] (TGT present vs absent (FIG. 3B)), the “fluorescence intensity with in vitro transcribed mCherry-TAG RNA” value was “significant increase in fluorescence intensity”. Besides, the “fluorescence turn-on with mCherry-TAGΔC transcript” value in test [1] (in the presence of enzyme) is listed as “negligible fluorescence turn-on”. Also, in test [2] (ECY-A1 compared with ECY-A1ΔC and ECY-X1 (FIG. 20B)), the “RNA substrate selectivity of incorporation” value is reported as “selectively incorporated into ECY-A1”. Also, in test [2] (RNA hairpins ECY-A1ΔC and ECY-X1, with TGT, by LC/MS), the “incorporation of PreQ1-TO into alternative RNA hairpins” value is on record as “unable to detect incorporation”. The “increase in TO fluorescence intensity upon covalent incorporation” value in test [3] is listed as about 40 fold.
In the case of `Nc1nc2[nH]cc(CNCCOCCOCCOCCNC(=O)CCCC[C@@H]3SC[C@@H]4NC(=O)N[C@@H]43)c2c(=O)[nH]1` [PreQ1-Biotin], in test [2] (37° C., other analogs 6 hour incubation), the “reaction time required for completion of TGT labeling of ECY-A1” value is 24 h. The “RNA recovered in streptavidin pull-down” value in test [4] was “single RNA band corresponding to transcript only when mCherry transcript contained the ECY-A 1 hairpin”. At streptavidin, the “streptavidin gel shift of ECY-A1 modified by TGT” value is given as “biotin remains functional as an affinity tag”.
For `CN1/C(=C/C=C2C=C(/C=C/C3=[N+](CCCCCC(=O)NCCOCCOCCOCCNCc4c[nH]c5nc(N)[nH]c(=O)c45)c4ccccc4C3(C)C)CCC/2)C(C)(C)c2ccccc21.O=C[O-]` [PreQ1-Cy7], in test [5], the “fluorescent labeling of mCherry-TAG transcript” value was “labeling of the transcript took place”. For the same molecule, the “staining of fixed, permeabilized CHO cells” value in test [6] is listed as “significantly greater staining of fixed cells”.

For the origin of these results see patent publication US11267842B2, “Enzymatic modification of nucleic acids” (The Regents of the University of California, priority 2015, dated 2022).
